Assay results: patent publication EP4111863A1, “PHOSPHORUS USE EFFICIENCY ENHANCERS AS PLANT GROWTH PROMOTORS” (EuroChem Antwerpen, priority 2021, dated 2023)

system: SPX1; assay: Chemical activity assessment: SPX1 phosphate starvation biomarker, pSPX1::GUS reporter line, GUS stained area; type: in vivo, Arabidopsis thaliana; conditions: Table 3; 50 µM compound, low phosphate modMS liquid medium, 7 days after germination; low phosphate control average of the same plate
Protocol: All Arabidopsis plant experiments were performed using the Arabidopsis thaliana Columbia-0 background. The Arabidopsis pSPX1::GUS line is described in the […] 2008, 54: 965-975. For rice, the cultivar Nipponbare was used. For maize, the cultivars DKC 2931 and B104 were used for regular pot experiments and sand-based pot experiments, respectively. For soybean, the cultivar Primus was used. […] The medium was solidified due to the addition of 0,6% Gelrite, unless stated otherwise. In case of vertical plates (root length and root hair measurements), the medium was supplied with 0.5% of sucrose and 1 µM (low phosphate, 1 µM KH2PO4, 9.9 mM KCI), 10 µM (low phosphate 10 µM KH2PO4, 9.9 mM KCI) or 1.25 mM KH2PO4 (high phosphate). Arabidopsis seeds were stratified for 2 days at 4 °C before germination. Seedlings were germinated in climate-controlled growth chambers at 22 °C under continuous light (100 µmol m^-2 s^-1). Husked rice seeds were germinated on wetted Whatman paper for 2 days at 37 °C and then transferred to Sterivent boxes or square Petri dishes with solid medium. Maize and soybean seeds were wetted 24 hours at room temperature prior to sowing in pots.
For the chemical activity assessment 3 to 8 seeds per well of Arabidopsis pSPX1::GUS line were sown in 96-well plates containing 150 µl of low phosphate modMS liquid medium containing 1% of sucrose. Compounds were added in 50 µM concentration, starting from a 5 mM stock of compounds solved in DMSO. Different chemical substances were separately added to different wells. Per plate, 16 control wells were used, 8 containing only the low phosphate medium and 1% DMSO, and 8 containing high phosphate medium and 1% DMSO. 7 days after germination, plates were scanned using a flatbed scanner (EPSON Expression 11000XL) and analyzed for leaf size. After scanning, the growth medium was replaced by GUS staining solution (see Plant Mol. Biol. Rep. 1994, 12: 37-42 for details) and incubated for 1.5 hours at 37 °C. The plates were scanned a second time and analyzed for GUS signal area. Measurements of both leaf area and GUS signal area were conducted by filtering out and measure the green and blue signal, respectively using ImageJ software. If the green leaf area was 50% or less than the control, samples were omitted. Additionally, all results were visually screened for leaf size and GUS signal.

Compound | GUS (SPX1) stained area normalized to the number of seeds (pixels)
Cc1csc(C2CN(Cc3nc(-c4ccccc4)no3)CCO2)n1 (stereo not drawn) | 0
Cc1ccc(C(CN2CCOCC2)NC(=O)c2cc(-c3ccccc3)[nH]n2)cc1 (stereo not drawn) | 0
CC1CN(CC(=O)Nc2ccccc2Cc2ccccc2)CC(C)O1 (stereo not drawn) | 0
CS(=O)(=O)CC1(CN2CCOC(c3ccc(F)cc3)C2)CC1 (stereo not drawn) | 0
O=C(O)c1cc(Cl)nc(N2CCOCC2)c1 | 0
CCn1c(Sc2nnnn2-c2ccccc2)nc2cc(S(=O)(=O)N3CCOCC3)ccc21 | 14
CC1CN(C(=O)c2cc(Cl)c(Cl)n2C)CCO1 (stereo not drawn) | 14
CC(C)C(NC(=O)C12CC3CC(CC(C3)C1)C2)C(=O)N1CCOCC1 (stereo not drawn) | 14
O=C(c1cc(-c2ccccc2)nc2c1cnn2Cc1cccc(F)c1)N1CCOCC1 | 14
Cc1ccc(C2CN(Cc3cc(-c4ccco4)on3)CCO2)c(C)c1 (stereo not drawn) | 15
Cn1cc(C2CN(Cc3ccc(CSC(F)F)o3)CCO2)cn1 (stereo not drawn) | 15
Cc1cc(C)n(CC2CN(CC(=O)N(C)c3nccs3)CCO2)n1 (stereo not drawn) | 15
O=C(CSc1ncnc2sccc12)c1ccc(CC(=O)N2CCOCC2)s1 | 15
O=C(Cn1c(NCCO)nc2ccccc21)N1CCOCC1 | 16
CCc1nnc(NC(=O)N2CCOCC2CC(C)C)s1 (stereo not drawn) | 16
O=C(c1ccc(-c2cc(Cl)ccc2Cl)o1)N1CCOCC1 | 16
CC1(C)CN(Cc2ccc(-n3ccnc3)cc2)CCO1 | 16
CC1COCCN1C(=O)CCc1nc(-c2cccs2)no1 (stereo not drawn) | 17
Cn1c(Cl)cnc1CN1CCOC(c2ccc(Cl)cc2)C1 (stereo not drawn) | 17
Cc1cc(C)c(C)c(OC(=O)N2CCOCC2)c1 | 17
NC(=O)C1CN(c2ncc(Br)cn2)CCO1 (stereo not drawn) | 17

Compound | GUS (SPX1) stained area normalized to the number of seeds (pixels)
Cc1cc(I)ccc1NC(=O)CN1CCOC(C)C1 (stereo not drawn) | 17
CC(=O)Nc1ccc(Sc2cc(C(=O)N3CCOCC3)c3ccccc3n2)cc1 | 18
O=S(=O)(N1CCOCC1)N1CCN(Cc2noc(-c3ccc(F)cc3)n2)CC1 | 19
Cc1cccn2c(=O)cc(CN3CCOC(c4ccc(F)cc4)C3)nc12 (stereo not drawn) | 19
CC1CN(C(=O)c2cnn(C)c2C(F)(F)F)CC(C)O1 (stereo not drawn) | 19
COc1cccc(-c2nnn(-c3nc(CN4CCOCC4)nc4sc5c(c34)CCCC5)n2)c1 | 20
CCCCn1c(N)c(C(=O)NCCN2CCOCC2)c2nc3ccccc3nc21 | 20
O=C(COc1ccc(Cl)cc1)Nc1ccccc1C(=O)N1CCOCC1 | 20
CC(=O)Nc1nc(CN2CC(C)OC(c3ccsc3)C2)cs1 (stereo not drawn) | 20
Cc1nnc(NC(=O)N2CC(C)OC(c3ccsc3)C2)s1 (stereo not drawn) | 20
Cc1ccc2cccc(OC(=O)N3CCOCC3)c2n1 | 21
Brc1cc(CN2CCOC(Cn3cccn3)C2)cs1 (stereo not drawn) | 21
CC(C)c1nc(C2COCCN2c2ccnc(-c3ccccc3)n2)no1 (stereo not drawn) | 21
CC1CN(CC(=O)Nc2ccccc2C(=O)NC2CCCC2)CC(C)O1 (stereo not drawn) | 21
CCC1COCCN1C(=O)Nc1nnc(C(F)(F)F)s1 (stereo not drawn) | 21
O=C(Cc1c[nH]c2cc(Cl)ccc12)N1CCOCC1c1ncon1 (stereo not drawn) | 22
Fc1ccc(-c2nnc(SCc3ccc4ccccc4n3)n2CCN2CCOCC2)cc1 | 22
CC1CN(C(=O)Nc2cc(C(C)C)on2)CC(c2ccsc2)O1 (stereo not drawn) | 23
CCC1CN(C(=O)CCc2nc(-c3cccs3)no2)CCO1 (stereo not drawn) | 23
c1ccc(OCCNCCN2CCOCC2)cc1 | 23
O=C(Nc1ccc(F)cn1)N1CCOC(c2nccs2)C1 (stereo not drawn) | 24

Compound | GUS (SPX1) stained area normalized to the number of seeds (pixels)
COC(=O)c1ccc(N2CCOC(c3ccc(C)o3)C2)nc1C (stereo not drawn) | 24
Cc1cccc(N2CCOC3(CCCC3)C2)n1 | 25
CC(Nc1cnn(CCN2CCOCC2)c1)c1nccs1 (stereo not drawn) | 25
Cc1ccc(C2COCCN2C(=O)Nc2nnc(C(F)F)s2)o1 (stereo not drawn) | 26
Cc1nc2c(cc(Oc3ccc(S(=O)(=O)N4CCOCC4)cn3)c3ccsc32)s1 | 26
Cc1cccc(-n2c(SCC3COc4ccccc4O3)nnc2N2CCOCC2)c1 (stereo not drawn) | 26
Fc1cc(C2CNCCO2)c(Cl)cc1Cl (stereo not drawn) | 27
Cc1nc2c(c(C)nn2C)c(C)c1CCC(=O)N1CC(C)OC(C)C1 (stereo not drawn) | 27
CCc1ccnc(C(=O)Nc2cnccc2N2CCOCC2)c1 | 27
O=C(NC1CCSc2ccc(Cl)cc21)c1ccc(N2CCOCC2)c([N+](=O)[O-])c1 (stereo not drawn) | 27
CC1(C)C(NC(=O)Nc2cc(Cl)ccc2N2CCOCC2)C2CCOC21 (stereo not drawn) | 28
O=C(CCc1ccccc1)Nc1c(C(=O)N2CCOCC2)oc2ccccc12 | 28
O=C1c2cccc3cccc(c23)C(=O)N1CCN1CCOCC1 | 29
O=C(C1CN(C(=O)C(c2ccccc2)c2ccccc2)c2ccccc2O1)N1CCOCC1 (stereo not drawn) | 30
O=S(=O)(c1ccc(Sc2nnc(-c3ccccc3)c3ccccc23)nc1)N1CCOCC1 | 31
CC1(C)CN(C(=O)c2csc(-c3ccsc3)n2)CCO1 | 31
COc1ccc(-c2nnc(SCC(=O)N3CCOCC3)o2)cc1OC | 32
Cc1nc(C(C)(C)NCC(=O)N2CC(C)OC(C)C2)sc1C (stereo not drawn) | 34
O=C(C1CN(C(=O)CSc2nc3ccccc3o2)c2ccccc2O1)N1CCOCC1 (stereo not drawn) | 34
OC(COc1cccc2ccccc12)CN1CCOC2CCCCC21 (stereo not drawn) | 34
Cc1nc(Cl)cc(N2CCOCC2c2c(C)nn(C)c2C)n1 (stereo not drawn) | 35
